Source: PubChem BioAssay AID1845201 (Molecular Pharmacology Branch, DTP, NCI, 2023)
pIC50: −log10 of the molar value. Values joined by “and” are separate entries in the source; they are usually repeats but may differ in a detail not shown here. Equal entries are not always repeated.

Tested on: COR L88 complex tumor spheroid viability
Assay: Anticancer human tumor COR L88 cell line growth inhibition;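 further: compound exposure lasted 7 days before viability readout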;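 on viability, T/C: percent of DMSO vehicle-treated spheroids = 100%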
Conditions: for viability, T/C: stronger effect = lower value
How it was run: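 Complex tumor spheroids combined malignant cells with endothelial cells and mesenchymal stem cells. DNA-damaging drugs and DNA repair inhibitors were tested alone and in combination, at half-log dilutions down from clinical Cmax (top 10 microM if Cmax unknown), 0.25% DMSO final.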

[1] = curve of first compound, second compound 0.003 µM
[2] = second compound 0.003 µM, first compound 0.0316 µM
[3] = second compound 0.003 µM, first compound 0.1 µM
[4] = second compound 0.003 µM, first compound 0.316 µM
[5] = second compound 0.003 µM, first compound 1 µM
[6] = second compound 0.003 µM, first compound 3.16 µM
[7] = second compound 0.003 µM, first compound 10 µM

Molecule `CC(C)n1c(=O)n(C)c2cnc3cc(F)c(-c4ccc(OCCCN5CCCCC5)nc4)cc3c21` + COc1cc2c(cc1O)CCNC21CSC2c3c(OC(C)=O)c(C)c4c(c3C(COC1=O)N1C(O)C3Cc5cc(C)c(OC)c(O)c5C(C21)N3C)OCO4 has a pIC50 (curve of first compound, second compound 30 pM) of under 5.00, a pIC50 (curve of first compound, second compound 94.9 pM) of 5.04 and a pIC50 (curve of first compound, second compound 0.0003 µM) of 5.32. For the same molecule, the pIC50 (curve of first compound, second compound 0.000949 µM) was 5.70, the pIC50 [1] was over 7.50 and the viability, T/C (second compound 30 pM, first compound 0.0316 µM) was 104%. It also gave a viability, T/C (second compound 30 pM, first compound 0.1 µM) of 107%, a viability, T/C (second compound 30 pM, first compound 0.316 µM) of 95.9% and a viability, T/C (second compound 30 pM, first compound 1 µM) of 104%. For the same molecule, the viability, T/C (second compound 30 pM, first compound 3.16 µM) was 94.1%, the viability, T/C (second compound 30 pM, first compound 10 µM) was 51.2% and the viability, T/C (second compound 94.9 pM, first compound 0.0316 µM) was 104%. It also gave a viability, T/C (second compound 94.9 pM, first compound 0.1 µM) of 103%, a viability, T/C (second compound 94.9 pM, first compound 0.316 µM) of 98% and a viability, T/C (second compound 94.9 pM, first compound 1 µM) of 103%. For the same molecule, the viability, T/C (second compound 94.9 pM, first compound 3.16 µM) was 89.3%, the viability, T/C (second compound 94.9 pM, first compound 10 µM) was 46.1% and the viability, T/C (second compound 0.0003 µM, first compound 0.0316 µM) was 64.2%. For the same molecule, the viability, T/C (second compound 0.0003 µM, first compound 0.1 µM) was 67.4%, the viability, T/C (second compound 0.0003 µM, first compound 0.316 µM) was 65.2% and the viability, T/C (second compound 0.0003 µM, first compound 1 µM) was 68.3%. It also gave a viability, T/C (second compound 0.0003 µM, first compound 3.16 µM) of 61.2%, a viability, T/C (second compound 0.0003 µM, first compound 10 µM) of 30.1% and a viability, T/C (second compound 0.000949 µM, first compound 0.0316 µM) of 57.3%. It also gave a viability, T/C (second compound 0.000949 µM, first compound 0.1 µM) of 54.5%, a viability, T/C (second compound 0.000949 µM, first compound 0.316 µM) of 54.7% and a viability, T/C (second compound 0.000949 µM, first compound 1 µM) of 53.9%. It also gave a viability, T/C (second compound 0.000949 µM, first compound 3.16 µM) of 47.3%, a viability, T/C (second compound 0.000949 µM, first compound 10 µM) of 11.1% and a viability, T/C [2] of 0.74%. It also gave a viability, T/C [3] of 0.77%, a viability, T/C [4] of 0.6% and a viability, T/C [5] of 0.82%. It also gave a viability, T/C [6] of 0.66% and a viability, T/C [7] of 0.99%.

For `CC(C)n1c(=O)n(C)c2cnc3cc(F)c(-c4ccc(OCCCN5CCCCC5)nc4)cc3c21`, the viability, T/C (compound 0.0316 µM) was 103% and 92.5% and 102%, the viability, T/C (compound 0.1 µM) was 113% and 103% (2×) and the viability, T/C (compound 0.316 µM) was 110% and 99.5% and 98.2%. The viability, T/C (compound 1 µM) was 94.8% and 88.6% and 99%, the viability, T/C (compound 3.16 µM) was 95.3% and 89.8% and 87.5% and the viability, T/C (compound 10 µM) was 56.5% and 61% and 56.6%. The pIC50 (curve of compound) was under 5.00.

Molecule `[2H]c1nc(C)nc([2H])c1-c1cc(NC[C@@H](C)c2cccc3c(C(=O)NC)ccnc23)ncn1` + CC[C@@]1(O)C(=O)OCc2c1cc1n(c2=O)Cc2cc3c(CN(C)C)c(O)ccc3nc2-1 has a pIC50 [1] of under 5.00, a pIC50 (curve of first compound, second compound 0.00949 µM) of under 5.00 and a pIC50 (curve of first compound, second compound 0.03 µM) of 5.70. It also gave a pIC50 (curve of first compound, second compound 0.0949 µM) of 5.81, a pIC50 (curve of first compound, second compound 0.3 µM) of 5.07 and a viability, T/C [2] of 99.2%. The viability, T/C [3] was 98.1%, the viability, T/C [4] was 103% and the viability, T/C [5] was 99%. The viability, T/C [6] was 101%, the viability, T/C [7] was 100% and the viability, T/C (second compound 0.00949 µM, first compound 0.0316 µM) was 68.6%. The viability, T/C (second compound 0.00949 µM, first compound 0.1 µM) was 72.5%, the viability, T/C (second compound 0.00949 µM, first compound 0.316 µM) was 83.1% and the viability, T/C (second compound 0.00949 µM, first compound 1 µM) was 87.7%. For the same molecule, the viability, T/C (second compound 0.00949 µM, first compound 3.16 µM) was 85%, the viability, T/C (second compound 0.00949 µM, first compound 10 µM) was 85.1% and the viability, T/C (second compound 0.03 µM, first compound 0.0316 µM) was 56.6%. For the same molecule, the viability, T/C (second compound 0.03 µM, first compound 0.1 µM) was 58.3%, the viability, T/C (second compound 0.03 µM, first compound 0.316 µM) was 52.1% and the viability, T/C (second compound 0.03 µM, first compound 1 µM) was 55.2%. For the same molecule, the viability, T/C (second compound 0.03 µM, first compound 3.16 µM) was 47.3%, the viability, T/C (second compound 0.03 µM, first compound 10 µM) was 38.9% and the viability, T/C (second compound 0.0949 µM, first compound 0.0316 µM) was 58.3%. For the same molecule, the viability, T/C (second compound 0.0949 µM, first compound 0.1 µM) was 59.8%, the viability, T/C (second compound 0.0949 µM, first compound 0.316 µM) was 54.7% and the viability, T/C (second compound 0.0949 µM, first compound 1 µM) was 62.5%. The viability, T/C (second compound 0.0949 µM, first compound 3.16 µM) was 34.4%, the viability, T/C (second compound 0.0949 µM, first compound 10 µM) was 37% and the viability, T/C (second compound 0.3 µM, first compound 0.0316 µM) was 55.9%. The viability, T/C (second compound 0.3 µM, first compound 0.1 µM) was 55.4%, the viability, T/C (second compound 0.3 µM, first compound 0.316 µM) was 57.1% and the viability, T/C (second compound 0.3 µM, first compound 1 µM) was 57.3%. The viability, T/C (second compound 0.3 µM, first compound 3.16 µM) was 57.1% and the viability, T/C (second compound 0.3 µM, first compound 10 µM) was 42.4%.

`CC(C)n1c(=O)n(C)c2cnc3cc(F)c(-c4ccc(OCCCN5CCCCC5)nc4)cc3c21` + Cn1nnc2c(C(N)=O)ncn2c1=O was tested, and the pIC50 (curve of first compound, second compound 1 µM) was under 5.00, the pIC50 (curve of first compound, second compound 3.16 µM) was under 5.00 and the pIC50 (curve of first compound, second compound 10 µM) was under 5.00. The pIC50 (curve of first compound, second compound 31.6 µM) was 5.16, the pIC50 (curve of first compound, second compound 100 µM) was 5.30 and the viability, T/C (second compound 1 µM, first compound 0.0316 µM) was 104%. The viability, T/C (second compound 1 µM, first compound 0.1 µM) was 97.7%, the viability, T/C (second compound 1 µM, first compound 0.316 µM) was 98.9% and the viability, T/C (second compound 1 µM, first compound 1 µM) was 94.5%. It also gave a viability, T/C (second compound 1 µM, first compound 3.16 µM) of 80.7%, a viability, T/C (second compound 1 µM, first compound 10 µM) of 52.8% and a viability, T/C (second compound 3.16 µM, first compound 0.0316 µM) of 96.2%. The viability, T/C (second compound 3.16 µM, first compound 0.1 µM) was 105%, the viability, T/C (second compound 3.16 µM, first compound 0.316 µM) was 98.2% and the viability, T/C (second compound 3.16 µM, first compound 1 µM) was 95.4%. The viability, T/C (second compound 3.16 µM, first compound 3.16 µM) was 80%, the viability, T/C (second compound 3.16 µM, first compound 10 µM) was 54.6% and the viability, T/C (second compound 10 µM, first compound 0.0316 µM) was 96.2%. For the same molecule, the viability, T/C (second compound 10 µM, first compound 0.1 µM) was 91.6%, the viability, T/C (second compound 10 µM, first compound 0.316 µM) was 94.5% and the viability, T/C (second compound 10 µM, first compound 1 µM) was 91.2%. The viability, T/C (second compound 10 µM, first compound 3.16 µM) was 76.1%, the viability, T/C (second compound 10 µM, first compound 10 µM) was 50.8% and the viability, T/C (second compound 31.6 µM, first compound 0.0316 µM) was 87.1%. For the same molecule, the viability, T/C (second compound 31.6 µM, first compound 0.1 µM) was 84.8%, the viability, T/C (second compound 31.6 µM, first compound 0.316 µM) was 87.5% and the viability, T/C (second compound 31.6 µM, first compound 1 µM) was 80.9%. It also gave a viability, T/C (second compound 31.6 µM, first compound 3.16 µM) of 67.4%, a viability, T/C (second compound 31.6 µM, first compound 10 µM) of 41.2% and a viability, T/C (second compound 100 µM, first compound 0.0316 µM) of 72.5%. It also gave a viability, T/C (second compound 100 µM, first compound 0.1 µM) of 69%, a viability, T/C (second compound 100 µM, first compound 0.316 µM) of 74% and a viability, T/C (second compound 100 µM, first compound 1 µM) of 76%. For the same molecule, the viability, T/C (second compound 100 µM, first compound 3.16 µM) was 56.9% and the viability, T/C (second compound 100 µM, first compound 10 µM) was 40.1%.
